Common to all, as to type: in vivo
Test [1] relates to tobacco budworm (Heliothis virescens). In words: B.1 Tobacco budworm, 96-well microtiter plate diet test with eggs. Conditions: for mortality at 2500 ppm: 120 h, egg and larval mortality after 5 days, read-out: mortality in comparison with untreated controls. The protocol: (§1) If not otherwise specified, the test solutions were prepared as follow: The active compound was dissolved at the desired concentration in a mixture of 1:1 (vol:vol) distilled water:acetone. The test solution was prepared on the day of use.
B.1 Tobacco Budworm (Heliothis virescens)
For evaluating control of tobacco budworm (Heliothis virescens) the test unit consisted of 96-well-microtiter plates containing an insect diet and 15-25 H. virescens eggs.
The compounds were formulated using a solution containing 75% v/v water and 25% v/v DMSO. Different concentrations of formulated compounds were sprayed onto the insect diet at 10 μl, using a custom-built micro atomizer, at two replications.
After application, microtiter plates were incubated at about 28±1° C. and about 80±5% relative humidity for 5 days. Egg and larval mortality was then visually assessed.

The test system of test [2] is boll weevil (Anthonomus grandis). In words: B.2 Boll weevil, 96-well microtiter plate diet test with eggs. Conditions: Anthonomus grandis; for mortality at 2500 ppm: 120 h, egg and larval mortality after 5 days, read-out: mortality in comparison with untreated controls. The procedure: as §1
B.2 Boll Weevil (Anthonomus grandis)
For evaluating control of boll weevil (Anthonomus grandis) the test unit consisted of 96-well-microtiter plates containing an insect diet and 5-10 A. grandis eggs.
The compounds were formulated using a solution containing 75% v/v water and 25% v/v DMSO. Different concentrations of formulated compounds were sprayed onto the insect diet at 5 μl, using a custom-built micro atomizer, at two replications.
After application, microtiter plates were incubated at about 25±1° C. and about 75±5% relative humidity for 5 days. Egg and larval mortality was then visually assessed.

The test system of test [3] is Southern armyworm (Spodoptera eridania), 2nd instar larvae. In words: B.3 Southern armyworm, 2nd instar larvae, foliar spray on lima bean plants. Conditions: 96 h, 4 days after treatment, read-out: mortality in comparison with untreated controls. The protocol:
B.3 Southern Armyworm (Spodoptera eridania), 2nd Instar Larvae
The active compounds were formulated by a Tecan liquid handler in 100% cyclohexanone as a 10,000-ppm solution supplied in tubes. The 10,000-ppm solution was serially diluted in 100% cyclohexanone to make interim solutions. These served as stock solutions for which final dilutions were made by the Tecan in 50% acetone:50% water (v/v) into 10 or 20 ml glass vials. A non-ionic surfactant (Kinetic@) was included in the solution at a volume of 0.01% (v/v). The vials were then inserted into an automated electrostatic sprayer equipped with an atomizing nozzle for application to plants/insects. Lima bean plants (variety Sieva) were grown 2 plants to a pot and selected for treatment at the 1st true leaf stage. Test solutions were sprayed onto the foliage by an auto-mated electrostatic plant sprayer equipped with an atomizing spray nozzle. The plants were dried in the sprayer fume hood and then removed from the sprayer. Each pot was placed into perforated plastic bags with a zip closure. Ten to 11 armyworm larvae were placed into the bag and the bags zipped closed. Test plants were maintained in a growth room at about 25° C. and about 20-40% relative humidity for 4 days, avoiding direct exposure to fluorescent light (14:10 light:dark photoperiod) to prevent trapping of heat inside the bags. Mortality and reduced feeding were assessed 4 days after treatment, compared to untreated control plants.

In test [4] the test system is yellow fever mosquito (Aedes aegypti). Description: whole plant or invertebrate. Conditions: for mortality at 2500 ppm: 48 h, larval mortality after 2 days, read-out: mortality in comparison with untreated controls; for mortality at 90 ppm: comparative experiment C.4, read-out: B.5, 90 ppm (mortality). The procedure:
as §1
B.5 Yellow Fever Mosquito (Aedes aegypti)
For evaluating control of yellow fever mosquito (Aedes aegypti) the test unit consisted of 96-well-microtiter plates containing 200 μl of tap water per well and 5-15 freshly hatched A. aegypti larvae.
The active compounds were formulated using a solution containing 75% (v/v) water and 25% (v/v) DMSO. Different concentrations of formulated compounds or mixtures were sprayed onto the insect diet at 2.5 μl, using a custom-built micro atomizer, at two replications.
After application, microtiter plates were incubated at 281° C., 80±5% RH for 2 days. Larval mortality was then visually assessed.

For test [5], the system named is green peach aphid (Myzus persicae). In words: B.6 Green peach aphid, systemic test with artificial diet under membrane. The protocol:
as §1
B.6 Green Peach Aphid (Myzus persicae)
For evaluating control of green peach aphid (Myzus persicae) through systemic means, the test unit consisted of 96-well-microtiter plates containing liquid artificial diet under an artificial membrane.
The compounds were formulated using a solution containing 75% v/v water and 25% v/v DMSO. Different concentrations of formulated compounds were pipetted into the aphid diet, using a custom built pipetter, at two replications.
After application, 5-8 adult aphids were placed on the artificial membrane inside the microtiter plate wells. The aphids were then allowed to suck on the treated aphid diet and incubated at about 23±1° C. and about 50±5% relative humidity for 3 days. Aphid mortality and fecundity was then visually assessed.

Setting [6] is: 72 h, aphid mortality after 3 days, read-out: mortality in comparison with untreated controls.

Like-named read-outs stand apart in the source and are kept apart here.

The molecule `CC(NC(=O)c1cc(C(F)(F)F)cc(C(F)(F)F)c1)c1nccnc1-n1ncc(-c2ccccn2)n1` (stereo not drawn) [I-14, N-[1-[3-[4-(2-pyridyl)triazol-2-yl]pyrazin-2-yl]ethyl]-3,5-bis(trifluoro-methyl)benzamide] came in with a mortality at 90 ppm in test [1] (90 ppm, comparative experiment C.1) of 100%. Also, the mortality at 2500 ppm in test [1], in test [2], in test [4] and in test [5] (setting [6]) was not below 75% throughout. Further, the mortality at 300 ppm in test [3] was not below 75%. In test [5] (comparative experiment C.1), this molecule had a mortality at 30 ppm of 100%.

For the molecule `CC(NC(=O)c1cc(C(F)(F)F)cc(C(F)(F)F)c1)c1nccnc1-n1cc(-c2ccncn2)cn1` (stereo not drawn) [I-42], the mortality at 2500 ppm in test [1], in test [2], in test [4] and in test [5] (setting [6]) was not below 75% throughout. In addition, the mortality at 90 ppm in test [2] (comparative experiment C.4) and in test [4] was 100% throughout. Moreover, the mortality at 300 ppm in test [3] is not below 75%. Moreover, the mortality at 30 ppm in test [5] (comparative experiment C.4) is 100%.

Regarding `CC(NC(=O)c1cc(C(F)(F)F)cc(C(F)(F)F)c1)c1nccnc1-n1cc(-c2nccs2)cn1` (stereo not drawn) [I-51], the mortality at 2500 ppm in test [1], in test [2], in test [4] and in test [5] (setting [6]) was not below 75% throughout. Also, the mortality at 90 ppm in test [2] (comparative experiment C.4) and in test [4] was 100% each time. For the same molecule, in test [3], the mortality at 300 ppm is not below 75%. In test [5] (comparative experiment C.4), this molecule had a mortality at 30 ppm of 100%.

In the case of `CC(NC(=O)c1cc(C(F)(F)F)cc(C(F)(F)F)c1)c1nccnc1-n1ncc(-c2cccnc2)n1` (stereo not drawn) [I-8], the mortality at 2500 ppm in test [1], in test [2], in test [4] and in test [5] (setting [6]) was not below 75% throughout. The mortality at 300 ppm in test [3] was not below 75%. Further, the mortality at 30 ppm in test [5] (comparative experiment C.2) is 100%.

On to `CSc1cnn(-c2c(Cl)ccnc2C(C)NC(=O)c2cc(C(F)(F)F)cc(C(F)(F)F)c2)c1` (stereo not drawn) [I-26, N-[1-[4-chloro-3-(4-methylsulfanylpyrazol-1-yl)-2-pyridyl]ethyl]-3,5-bis(trifluoromethyl)benzamide], for which the mortality at 2500 ppm in test [1], in test [2] and in test [4] was not below 75% throughout. Besides, in test [3], the mortality at 300 ppm was not below 75%.

With `CC(NC(=O)c1cc(C(F)(F)F)cc(C(F)(F)F)c1)c1nccnc1-n1cc(S(C)(=O)=O)cn1` (stereo not drawn) [I-17, N-[1-[3-(4-methylsulfonylpyrazol-1-yl)pyrazin-2-yl]ethyl]-3,5-bis(trifluoromethyl)benzamide], the mortality at 2500 ppm in test [1] was not below 75%; in test [2], not below 75%; in test [4], not below 75%; in test [5] (comparative experiment C.5, read-out: B.6, 2500 ppm (mortality)), 100%; in test [5] (setting [6]), not below 75%. The same molecule yielded a mortality at 90 ppm in test [2] (comparative experiment C.5) of 100%. Besides, the mortality at 300 ppm in test [3] is not below 75%. Moreover, the mortality at 80 ppm in test [4] (80 ppm, comparative experiment C.5, read-out: B.5, 80 ppm (mortality)) stood at 100%.

On to `CC(NC(=O)c1cc(C(F)(F)F)cc(C(F)(F)F)c1)c1nccnc1-n1cc(-c2cccnc2)nn1` (stereo not drawn) [I-9], for which the mortality at 2500 ppm in test [1], in test [2], in test [4] and in test [5] (setting [6]) was not below 75% throughout. This molecule came in with a mortality at 30 ppm in test [2] (30 ppm, comparative experiment C.3) of 100%. In test [3], the mortality at 300 ppm was not below 75%. This molecule also yielded a mortality at 90 ppm in test [5] (90 ppm, comparative experiment C.3) of 100%.

Source of the values: US20260206754A1, “HETEROARYL COMPOUNDS FOR THE CONTROL OF INVERTEBRATE PESTS” (priority 2022, published 2026).
